The series is described as follows: Human HepG2 cell viability assay in 384 well format. The settings on record: HepG2 cells, read-out: Inhibition. The arrangement: dose 125 nL, time 70.5 hour; concentration not given beside the values. Format: toxicity, cell-based.

For the compound `CCOc1ccccc1CNC(=O)N1CCC(n2cncn2)CC1`, the cytotoxicity at 70.5 h was -11.8%. In the case of `Cc1cnn(CCC(=O)N2CCCN(c3ccccc3C#N)CC2)c1`, the cytotoxicity at 70.5 h was -1.64%. Consider `Cc1ccc(N2CCCC(NCC(=O)NC(C3CC3)C3CC3)C2)nn1` (stereo not drawn), for which the cytotoxicity at 70.5 h was -8.53%. As for `CCNC(c1ccc(CC)cc1)c1cccnc1` (stereo not drawn), the figure is 7.31%. As for `CCNC(c1ccc(Cl)cc1)c1cccnc1` (stereo not drawn), the figure is 34.5%; as for `CC(=O)N1CCCN(C(=O)C(C)n2cncn2)CC1` (stereo not drawn), -3.53%.

For the compound `CN(C)CCN1CCC(CNCc2c[nH]nc2C(C)(C)C)CC1`, the cytotoxicity at 70.5 h was determined as 28.4%. As for `COCCN1CCC(CNCc2c[nH]nc2C(C)(C)C)CC1`, the figure is 24.7%; as for `Cc1ccc(NC2CCN(C(=O)c3ccc(C#N)cc3)CC2)nn1`, -7.94%. As for `CCOCCN1CCN(CC(=O)N2CCCC2)CC1CC` (stereo not drawn), the figure is -4.43%. Turning to `Cc1ccc(N2CCCC(NCc3cnc(C)s3)C2)nn1` (stereo not drawn), the cytotoxicity at 70.5 h was -1.22%.

Consider `CCOCCN1CCN(CC(=O)N2CCC2)CC1CC` (stereo not drawn), for which the cytotoxicity at 70.5 h is -7.02%. With `O=C(NCCc1ccccc1)NCC(O)c1cccc(F)c1` (stereo not drawn), the cytotoxicity at 70.5 h is -3.34%.

In the case of `COc1cc(C(=O)NCc2ccc3c(c2)CCCN3C)cc(OC)c1Br`, the cytotoxicity at 70.5 h was -8.61%. As for `CCOc1ncccc1CNCc1c(C(C)C)nn(C)c1N(C)C`, the figure is 57.6%.

Regarding `CCN(Cc1cccc(F)c1)Cn1nc(C)c2c(C)onc2c1=O`, the cytotoxicity at 70.5 h is -8.8%. The figure for `CSc1ccc(CNC(=O)NCC(O)c2cccc(F)c2)cc1` (stereo not drawn) is -7.86%; for `Fc1ccc(-c2nc(CN3CCOC(Cn4cccn4)C3)co2)cc1` (stereo not drawn) it is -5.89%. The figure for `O=c1[nH]c(CN2CCOC(Cn3cccn3)C2)nc2ccccc12` (stereo not drawn) is -6.2%; for `Cc1cnc(C(=O)NCc2ccc3c(c2)CCCN3C)cn1` it is -4.01%; for `Cc1cnn(CC2CN(Cc3nc4ccccc4s3)CCO2)c1` (stereo not drawn) it is -4.94%.

Turning to `CN1CCCc2cc(CNC(=O)c3ccc(-n4cnnc4)cc3)ccc21`, the cytotoxicity at 70.5 h was -2.87%. As for `N#Cc1ccc(CC(=O)N2CCC(Nc3cccnn3)CC2)cc1`, the cytotoxicity at 70.5 h is -5.35%. The figure for `Cc1ccc(CC(=O)N2CCC(Nc3ccc(C)nn3)CC2)cn1` is -1.2%; for `Cc1sc(-c2ccco2)nc1C(=O)N1CCCC1Cn1cccn1` (stereo not drawn) it is -1.73%; for `O=C(c1cnc(-c2cnccn2)s1)N1CCCC1Cn1cccn1` (stereo not drawn) it is -3.28%.

As for `Cc1nc(C)n(C2CCCN(C(=O)c3cn4cccnc4n3)C2)n1` (stereo not drawn), the cytotoxicity at 70.5 h turned out to be 2.73%. The figure for `CC(C)c1nccn1C1CCCN(C(=O)c2cn3cccnc3n2)C1` (stereo not drawn) is -3.43%; for `CN1CCCc2cc(CNC(=O)c3cc[n+]([O-])cc3)ccc21` it is -6.17%. The figure for `CC(C)COCCCNC(=O)NCC(O)c1cccc(F)c1` (stereo not drawn) is -0.106%; for `CCOc1cccc2c1OCC(C(=O)NS(=O)(=O)c1cccs1)=C2` it is -9.43%; for `COCCCN(CCOC)Cc1nc2c(cnn2C)c(=O)[nH]1` it is -12.6%.

`CSCc1ccc(C(=O)N2CCN(CC(C)O)CC2)cc1` (stereo not drawn): the cytotoxicity at 70.5 h is -15.3%. The figure for `O=C(CCOCC(F)(F)F)N1CCCC1c1noc(C2CC2)n1` (stereo not drawn) is -8.98%; for `CCN(Cc1ccc2c(c1)OCCO2)C(=O)NCc1nncn1CC` it is -13.5%. The figure for `Cc1nc(CN(C)C2CCN(CCn3cc(C#N)cn3)C2)no1` (stereo not drawn) is 8.59%; for `O=C(COCc1ccccc1)N1CCCC1c1noc(C2CC2)n1` (stereo not drawn) it is -7.31%; for `CC(C)c1nc(CN2CCOC(CNc3cccnn3)C2)cs1` (stereo not drawn) it is -8.93%.

With `CC(C)CN(CCc1ccccc1)Cc1nc2c(cnn2C)c(=O)[nH]1`, the cytotoxicity at 70.5 h is -3.12%. `COCCN(CCOC)Cc1nc2c(cnn2C)c(=O)[nH]1`: the cytotoxicity at 70.5 h was found to be 7%. As for `O=C(c1cccc2c1OCO2)N1CCCC(n2ccnc2)C1` (stereo not drawn), the figure is -10.3%; as for `O=C(c1cnc(-c2cccs2)s1)N1CCCC(n2ccnc2)C1` (stereo not drawn), -8.31%; as for `COCc1ccc(C(=O)N2CCN(CC(C)O)CC2)cc1` (stereo not drawn), -3.37%. The figure for `COCCCC(=O)N1CCC(Nc2cccnn2)CC1` is -10.4%; for `Cc1cnn(CC2CCCN2C(=O)c2cccnc2-n2cncn2)c1` (stereo not drawn) it is -13.9%. In the case of `Cc1nn(C)c(Cl)c1C1CCCN1C(=O)c1cnc[nH]1` (stereo not drawn), the cytotoxicity at 70.5 h was -12.8%. As for `Cc1nc(C2CCCN2C(=O)COCc2ccccc2)no1` (stereo not drawn), the figure is -10.2%; as for `Cc1nn(C)c(Cl)c1C1CCCN1C(=O)c1ccc[nH]1` (stereo not drawn), 9.9%; as for `N#Cc1cccc(NS(=O)(=O)c2ccc(C(=O)O)cc2F)c1`, -13.8%. The figure for `Cc1cc(NS(=O)(=O)c2ccc(C(=O)O)cc2F)ccc1F` is -10.7%; for `CN(CC(=O)N1CCCC1c1noc(C2CC2)n1)Cc1ccccc1` (stereo not drawn) it is -7.61%; for `CCn1nc2c(cc1=O)CN(CCCN1CCCC1=O)CC2` it is 16.8%.

Take `Cc1nccc(C(=O)NC(COCC(C)C)c2ccco2)n1` (stereo not drawn): the cytotoxicity at 70.5 h came to 19.4%. As for `CCc1nccn1C1CCCN(C(=O)c2cnn3cccnc23)C1` (stereo not drawn), the figure is 27.7%.

On to `O=C(COc1ccc(C(F)(F)F)cc1)N1CCOCC1c1ncon1` (stereo not drawn), for which the cytotoxicity at 70.5 h was -6%. For `Cc1cc(C)n(CC2CCCN2C(=O)Cc2c(C)nn(C)c2C)n1` (stereo not drawn), the cytotoxicity at 70.5 h is -0.624%. The figure for `O=C(COc1ccc(Cl)cc1)N1CCOCC1c1ncon1` (stereo not drawn) is -1.69%; for `O=C(COc1cccc(Cl)c1)N1CCOCC1c1ncon1` (stereo not drawn) it is 13.9%; for `Cc1ccc(NC(=O)N(C)Cc2cnn(C)c2)c(C)c1` it is -10.1%. As for `CC(C(=O)NCc1ccc(N2CCCCCC2)nc1)S(C)(=O)=O` (stereo not drawn), the figure is -9.13%; as for `CS(=O)(=O)c1ccc(CNc2nccc(C(F)(F)F)n2)cc1`, -1.16%; as for `O=C(CCNc1ncccn1)N1CCN(c2nccs2)CC1`, -16.3%.

With `CC(C)C(NC(N)=O)C(=O)NCc1ccc(N2CCCC2)nc1` (stereo not drawn), the cytotoxicity at 70.5 h was -9.75%.

With `O=C(NCCNc1ncccn1)C1CC(=O)N(Cc2ccco2)C1` (stereo not drawn), the cytotoxicity at 70.5 h is -4.28%. The figure for `CN(Cc1nnc2n1CCC2)C(=O)c1ccc2c(c1)OCO2` is -11.9%; for `Cc1ccc(NC(=O)NCCCn2nc3ccccn3c2=O)cc1` it is -0.527%; for `Cc1cccc(NC(=O)Cn2nc3ccccn3c2=O)c1C` it is -10.3%. The figure for `O=C(NCCCn1nc2ccccn2c1=O)Nc1ccccc1` is 16.7%; for `CN(Cc1nnc2n1CCC2)C(=O)c1ccc2c(c1)CCO2` it is -3.65%.

As for `Cc1ccccc1CC(=O)N(C)C1CCCC1`, the cytotoxicity at 70.5 h is -4.43%. The figure for `COc1ccc(OCCN(C)C(=O)NC(C)c2nncn2C)cc1` (stereo not drawn) is -1.05%; for `CC(NC(=O)N(C)CCCOc1ccc(F)cc1)c1nncn1C` (stereo not drawn) it is -1.45%. As for `COc1ncccc1CNC(=O)NCCNC(=O)c1ccco1`, the figure is 0.312%. For the compound `CC(C)Oc1ncccc1CNC(=O)c1ccco1`, the cytotoxicity at 70.5 h worked out at 1.27%. The figure for `CCS(=O)(=O)N(C)CC(=O)Nc1ccc(Br)cn1` is 4.52%; for `O=C(Cc1ccc(-n2cccn2)cc1)N1CCN2CCCCC2C1` (stereo not drawn) it is 3.24%.

With `CC(=O)NC1CCCN(C(=O)NCc2cccnc2N(C)C)C1` (stereo not drawn), the cytotoxicity at 70.5 h was found to be 4.39%. The figure for `Cc1ccc(-c2nc(CCNC(=O)CCN3CCOC3=O)co2)cc1` is -2.58%; for `Cn1ccnc1CN1CCN(Cc2noc(-c3ccccc3)n2)CC1` it is -4.14%. As for `Cc1ccc(CCC(=O)N2CCCC(n3cncn3)C2)c(C)c1` (stereo not drawn), the figure is -3.58%; as for `CCNc1cc2c(nn1)CCN(C(=O)c1ccc(CNC(C)=O)o1)C2`, -5.9%. Consider `CCc1nc(C2CCCN2C(=O)c2nc(C)n3ccccc23)no1` (stereo not drawn), for which the cytotoxicity at 70.5 h is -7.79%.

Take `CCc1nc(CC(=O)N2CCCC2CN2CCCC2)cs1` (stereo not drawn): the cytotoxicity at 70.5 h is -1.93%. The figure for `CCc1nnc(CN2CCCC(c3cc(C(F)(F)F)[nH]n3)C2)o1` (stereo not drawn) is 0.217%; for `COc1ccccc1-c1noc(CN2CCCC2Cn2cccn2)n1` (stereo not drawn) it is 12.5%. As for `CCc1noc(C(C)N2CCNCC2)n1` (stereo not drawn), the figure is 0.0476%; as for `c1cnn(CC2CCCN2Cc2nc(-c3ccoc3)no2)c1` (stereo not drawn), 28.2%. As for `O=C(CN1CCCC(Cn2cncn2)C1)NCCOc1ccccc1` (stereo not drawn), the figure is -2.13%; as for `COc1ccc(CC(=O)N2CCCC(n3cc(C)cn3)C2)cc1F` (stereo not drawn), -2.2%; as for `Cc1cc(OCC(=O)N2CCCC(c3noc(C)n3)C2)no1` (stereo not drawn), -5.48%. As to `Cc1ccc(-c2nc(CN3CCCC3Cn3cc(C)cn3)no2)cc1` (stereo not drawn), the cytotoxicity at 70.5 h was 23.6%.

`CN(C)CC1CN(Cc2coc(-c3cccs3)n2)CCO1` (stereo not drawn): the cytotoxicity at 70.5 h came to 1.06%. As for `CC(Cn1cccn1)NC(=O)NCc1cccnc1OC1CCCC1` (stereo not drawn), the figure is -12.8%; as for `CC(Cn1cccn1)NC(=O)Cc1cccs1` (stereo not drawn), -6.09%; as for `CC(NC(=O)N1CCN(CCc2ccccc2)CC1)c1nncn1C` (stereo not drawn), -11%. The figure for `COc1cc(C(=O)N2CCCS2(=O)=O)cc(Cl)c1OC` is -9.28%; for `COc1cc(C(=O)N2CCCS2(=O)=O)ccc1C` it is 18.4%; for `CC(NC(=O)N1CCC(OCc2ccccc2)CC1)c1nncn1C` (stereo not drawn) it is -11.3%. In the case of `CCn1cnnc1CNC(=O)N1CCC(C(=O)NC)CC1`, the cytotoxicity at 70.5 h was 1.9%. As for `CC(NC(=O)c1cc(Br)c2c(c1)OCCO2)C(N)=O` (stereo not drawn), the cytotoxicity at 70.5 h is 16.6%. The figure for `Cc1ccc(C(O)CNCCn2cccn2)cc1C` (stereo not drawn) is -3.19%; for `CNc1snc(C)c1C(=O)N1CCCC(n2nc(C)cc2C)C1` (stereo not drawn) it is 23.1%. The figure for `CC(C)c1nc(C2CCCN2CC(=O)Nc2ccc(Cl)cn2)no1` (stereo not drawn) is 19.2%.

Source of the values: ChEMBL document CHEMBL3507680, “University of Dundee, Gates Library screen for HepG2 cell viability”.
